# Experimental data reported in patent US20090304692A1, “TRIAZINE COMPOUNDS AS PI3 KINASE AND MTOR INHIBITORS” (Wyeth, priority 2008, published 2009).
# Values joined by “and” are separate entries in the source; they are usually repeats but may differ in a detail not shown here. Equal entries are not always repeated. Structures can show the parent of a compound that is named as a salt. Where two headings read alike, the source gives them in different places.
# Assays:
# Human mTOR (FLAG-TOR) = Human mTOR (FLAG-TOR) (Homo sapiens, UniProt P42345); experiment: mTOR kinase assay (DELFIA format, purified enzyme); type: biochemical
# Chain of Human mTOR (FLAG-TOR) (P42345 1360-2549 limits assumed): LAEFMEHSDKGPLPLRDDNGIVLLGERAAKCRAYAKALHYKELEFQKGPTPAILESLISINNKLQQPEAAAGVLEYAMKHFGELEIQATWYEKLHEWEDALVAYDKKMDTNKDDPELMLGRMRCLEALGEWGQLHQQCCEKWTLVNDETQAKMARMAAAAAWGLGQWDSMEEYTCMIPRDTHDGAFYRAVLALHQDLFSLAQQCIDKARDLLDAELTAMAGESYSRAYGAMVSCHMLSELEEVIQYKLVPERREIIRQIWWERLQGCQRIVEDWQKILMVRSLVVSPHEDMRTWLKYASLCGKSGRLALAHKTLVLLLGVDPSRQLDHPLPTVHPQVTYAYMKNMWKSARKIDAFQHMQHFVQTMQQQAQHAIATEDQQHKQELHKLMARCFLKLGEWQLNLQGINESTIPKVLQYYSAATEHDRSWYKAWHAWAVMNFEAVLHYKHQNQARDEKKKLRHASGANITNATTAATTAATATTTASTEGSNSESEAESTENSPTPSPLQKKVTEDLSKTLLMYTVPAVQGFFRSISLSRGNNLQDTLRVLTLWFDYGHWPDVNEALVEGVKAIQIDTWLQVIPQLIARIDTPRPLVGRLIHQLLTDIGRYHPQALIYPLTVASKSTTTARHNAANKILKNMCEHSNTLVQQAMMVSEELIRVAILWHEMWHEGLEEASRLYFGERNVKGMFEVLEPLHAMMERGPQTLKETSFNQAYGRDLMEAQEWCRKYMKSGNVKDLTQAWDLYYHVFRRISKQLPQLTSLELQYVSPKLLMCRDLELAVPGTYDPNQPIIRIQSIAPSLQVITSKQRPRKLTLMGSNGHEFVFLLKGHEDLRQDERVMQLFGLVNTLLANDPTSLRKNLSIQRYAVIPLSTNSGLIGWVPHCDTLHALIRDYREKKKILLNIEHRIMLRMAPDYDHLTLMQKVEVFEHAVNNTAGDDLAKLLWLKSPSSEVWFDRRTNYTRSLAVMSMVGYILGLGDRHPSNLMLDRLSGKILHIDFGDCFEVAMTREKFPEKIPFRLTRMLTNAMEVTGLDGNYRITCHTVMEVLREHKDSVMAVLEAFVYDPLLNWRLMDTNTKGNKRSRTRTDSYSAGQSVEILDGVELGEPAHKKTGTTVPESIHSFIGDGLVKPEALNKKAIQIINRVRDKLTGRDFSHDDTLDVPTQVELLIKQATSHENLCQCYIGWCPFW
# [1] = test system: human breast MDA-MB-361 tumor cell line; experiment: In vitro cell culture growth assay (MTS), MDA-MB-361; type: cell-based; details: MTS cell growth assay, three days after drug treatment, read-out: IC50 MDA-MB-361
# [2] = test system: human prostate PC3-mm2 tumor cell line; experiment: In vitro cell culture growth assay (MTS), PC3-mm2; type: cell-based; details: MTS cell growth assay, three days after drug treatment, read-out: IC50 PC3-mm2
# PI3K-α = PI3K-α (Homo sapiens, UniProt P42336); experiment: PI3K-alpha fluorescence polarization assay; details: read-out: IC50 PI3Kα
# Chain of PI3K-α (P42336 whole entry, species assumed): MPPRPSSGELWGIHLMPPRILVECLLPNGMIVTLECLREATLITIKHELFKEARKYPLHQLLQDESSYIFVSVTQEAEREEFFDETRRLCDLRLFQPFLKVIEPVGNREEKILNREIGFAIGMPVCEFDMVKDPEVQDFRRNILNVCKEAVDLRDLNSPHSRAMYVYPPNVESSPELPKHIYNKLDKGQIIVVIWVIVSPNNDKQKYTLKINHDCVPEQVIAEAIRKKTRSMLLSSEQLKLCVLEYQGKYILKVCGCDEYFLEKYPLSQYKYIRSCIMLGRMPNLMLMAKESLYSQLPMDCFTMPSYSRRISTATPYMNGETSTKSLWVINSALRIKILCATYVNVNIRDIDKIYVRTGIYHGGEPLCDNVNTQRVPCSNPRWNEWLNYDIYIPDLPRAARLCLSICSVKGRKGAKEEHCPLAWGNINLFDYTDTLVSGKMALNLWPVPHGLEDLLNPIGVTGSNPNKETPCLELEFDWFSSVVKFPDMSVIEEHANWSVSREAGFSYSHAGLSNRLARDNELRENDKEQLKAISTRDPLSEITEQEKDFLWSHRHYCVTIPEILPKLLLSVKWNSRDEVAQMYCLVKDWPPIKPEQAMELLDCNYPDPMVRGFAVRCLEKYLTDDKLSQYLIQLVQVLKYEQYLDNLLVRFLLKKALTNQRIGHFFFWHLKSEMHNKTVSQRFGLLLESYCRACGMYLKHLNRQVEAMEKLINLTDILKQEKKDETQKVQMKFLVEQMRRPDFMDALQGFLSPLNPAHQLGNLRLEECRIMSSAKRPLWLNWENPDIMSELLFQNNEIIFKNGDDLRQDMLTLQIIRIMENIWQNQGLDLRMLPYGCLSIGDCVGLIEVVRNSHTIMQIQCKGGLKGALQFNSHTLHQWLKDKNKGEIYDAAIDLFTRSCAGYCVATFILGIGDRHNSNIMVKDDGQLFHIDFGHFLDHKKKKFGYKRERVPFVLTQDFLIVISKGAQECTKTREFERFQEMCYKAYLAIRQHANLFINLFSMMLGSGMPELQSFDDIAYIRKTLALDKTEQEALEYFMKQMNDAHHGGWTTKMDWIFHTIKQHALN
# Chain of PI3K-α (P27986 whole entry partner, species assumed): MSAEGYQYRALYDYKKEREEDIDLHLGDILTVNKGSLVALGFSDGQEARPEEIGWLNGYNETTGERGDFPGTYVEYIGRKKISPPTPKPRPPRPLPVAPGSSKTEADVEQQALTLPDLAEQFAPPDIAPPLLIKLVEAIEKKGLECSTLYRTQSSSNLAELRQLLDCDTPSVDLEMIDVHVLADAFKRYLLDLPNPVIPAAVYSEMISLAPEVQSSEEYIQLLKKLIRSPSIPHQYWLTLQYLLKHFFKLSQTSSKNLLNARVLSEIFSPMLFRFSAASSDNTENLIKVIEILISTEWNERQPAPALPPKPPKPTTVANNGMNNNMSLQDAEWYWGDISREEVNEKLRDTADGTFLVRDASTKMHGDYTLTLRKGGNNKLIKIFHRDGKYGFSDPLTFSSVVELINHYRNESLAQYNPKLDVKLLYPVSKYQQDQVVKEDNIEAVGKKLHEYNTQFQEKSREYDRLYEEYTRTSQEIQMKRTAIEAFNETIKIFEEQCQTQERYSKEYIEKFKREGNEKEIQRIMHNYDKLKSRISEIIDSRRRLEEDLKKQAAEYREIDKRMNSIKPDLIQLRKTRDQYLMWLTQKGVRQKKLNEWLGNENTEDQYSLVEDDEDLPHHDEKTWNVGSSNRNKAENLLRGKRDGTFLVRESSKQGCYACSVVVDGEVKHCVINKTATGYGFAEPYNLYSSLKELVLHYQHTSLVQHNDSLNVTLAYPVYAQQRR
# PI3K-γ = PI3K-γ (Homo sapiens, UniProt P48736); experiment: PI3K-gamma fluorescence polarization assay; details: read-out: IC50 PI3Kγ
# Chain of PI3K-γ (P48736 whole entry, species assumed): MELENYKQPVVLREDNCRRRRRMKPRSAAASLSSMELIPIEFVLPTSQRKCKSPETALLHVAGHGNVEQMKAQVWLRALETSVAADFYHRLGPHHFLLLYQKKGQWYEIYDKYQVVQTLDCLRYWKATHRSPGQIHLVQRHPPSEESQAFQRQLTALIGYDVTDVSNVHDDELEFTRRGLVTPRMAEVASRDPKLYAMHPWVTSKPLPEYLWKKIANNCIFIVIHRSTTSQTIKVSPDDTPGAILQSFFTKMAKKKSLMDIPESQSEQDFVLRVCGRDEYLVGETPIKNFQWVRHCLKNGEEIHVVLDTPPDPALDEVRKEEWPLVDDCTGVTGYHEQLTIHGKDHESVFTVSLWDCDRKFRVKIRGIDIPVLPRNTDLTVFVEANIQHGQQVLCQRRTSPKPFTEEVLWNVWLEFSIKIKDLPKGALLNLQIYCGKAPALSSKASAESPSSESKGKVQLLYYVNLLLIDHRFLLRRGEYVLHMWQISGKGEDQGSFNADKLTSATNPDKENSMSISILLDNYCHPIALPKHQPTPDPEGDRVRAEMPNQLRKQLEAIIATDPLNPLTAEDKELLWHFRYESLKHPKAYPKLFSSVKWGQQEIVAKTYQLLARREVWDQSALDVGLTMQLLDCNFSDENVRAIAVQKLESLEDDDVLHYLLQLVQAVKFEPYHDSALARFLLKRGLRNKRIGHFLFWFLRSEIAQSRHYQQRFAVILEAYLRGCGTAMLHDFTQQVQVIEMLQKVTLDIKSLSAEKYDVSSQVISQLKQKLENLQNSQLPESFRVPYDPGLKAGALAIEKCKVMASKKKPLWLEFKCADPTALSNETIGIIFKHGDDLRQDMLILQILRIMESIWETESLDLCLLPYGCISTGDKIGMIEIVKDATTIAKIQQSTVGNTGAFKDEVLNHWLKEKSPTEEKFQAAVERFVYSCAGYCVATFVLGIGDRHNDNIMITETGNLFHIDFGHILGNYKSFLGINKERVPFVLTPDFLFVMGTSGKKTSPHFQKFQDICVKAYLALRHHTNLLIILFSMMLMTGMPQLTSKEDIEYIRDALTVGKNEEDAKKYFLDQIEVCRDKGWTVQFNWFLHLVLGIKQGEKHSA
# [3] = Homo sapiens, MDA-MB-361, 72 h, MDA-MB-361 cells
# [4] = Homo sapiens, PC3MM2, 72 h, PC3-mm2 cells
# [5] = Homo sapiens, 72 h, MDA-MB-361 cells
molecule,measurement,setting,value
"CN1CCN(C(=O)c2ccc(NC(=O)Nc3ccc(-c4nc(C5CCOCC5)nc(N5CCOCC5)n4)cc3)cc2)CC1 [Example 511, 1-{4-[(4-methylpiperazin-1-yl)carbonyl]phenyl}-3-{4-[4-morpholin-4-yl-6-(tetrahydro-2H-pyran-4-yl)-1,3,5-triazin-2-yl]phenyl}urea]",IC50,Human mTOR (FLAG-TOR); read-out: IC50 mTOR,0.00052 µM
same,IC50,[1]; [3],0.002 µM
same,IC50,[2]; [4],0.01 µM
same,IC50,PI3K-α,0.0023 µM
same,IC50,PI3K-γ,0.0103 µM
"CN(C)CCN(C)C(=O)c1ccc(NC(=O)Nc2ccc(-c3nc(N4CCOCC4)nc(N4CCOCC4)n3)cc2)cc1 [Example 71, N-(2-(dimethylamino)ethyl)-4-(3-(4-(4,6-dimorpholino-1,3,5-triazin-2-yl)phenyl)ureido)-N-methylbenzamide hydrochloride]",IC50,Human mTOR (FLAG-TOR); IC50 mTOR,0.00067 µM
same,IC50,"[1]; Homo sapiens, MDA-MB-361, 72 h",< 0.0098 µM
same,IC50,"[2]; Homo sapiens, PC3MM2, 72 h",0.0183 µM
same,IC50,PI3K-α,0.0004 µM
same,IC50,PI3K-γ,0.008 µM
"COC(=O)c1ccc(NC(=O)Nc2ccc(-c3nc(OC(C)C)nc(N4CCOCC4)n3)cc2)cc1 [Example 95, methyl 4-({[4-(4-isopropoxy-6-morpholin-4-yl-1,3,5-triazin-2-yl)phenyl]carbamoyl}amino)benzoate]",IC50,Human mTOR (FLAG-TOR); read-out: IC50 mTOR,0.00275 µM
same,IC50,"[1]; Homo sapiens, MDA-MB-361, 72 h",0.333 µM
same,IC50,"[2]; Homo sapiens, PC3MM2, 72 h",0.364 µM
same,IC50,PI3K-α,0.048 µM
same,IC50,PI3K-γ,0.101 µM
"CCCCc1nc(-c2ccc(NC(=O)Nc3ccc(C(=O)NC4CCN(C)CC4)cc3)cc2)nc(N2CCOCC2)n1 [Example 272, 4-({[4-(4-butyl-6-morpholin-4-yl-1,3,5-triazin-2-yl)phenyl]carbamoyl}amino)-N-(1-methylpiperidin-4-yl)benzamide]",IC50,Human mTOR (FLAG-TOR); read-out: IC50 mTOR,0.03 µM
same,IC50,"[1]; Homo sapiens, MDA-MB-361, 72 h",0.07 µM
same,IC50,"[2]; Homo sapiens, PC3MM2, 72 h",0.34 µM
same,IC50,PI3K-α,0.005 µM
same,IC50,PI3K-γ,0.054 µM
"CC(C)N1CCN(C(=O)c2ccc(NC(=O)Nc3ccc(-c4nc(N5CCOCC5)nc(N5CCOC[C@@H]5C)n4)cc3)cc2)CC1 [Example 618, 1-(4-{[4-(1-methylethyl)piperazin-1-yl]carbonyl}phenyl)-3-(4-{4-[(3S)-3-methylmorpholin-4-yl]-6-morpholin-4-yl-1,3,5-triazin-2-yl}phenyl)urea]",IC50,Human mTOR (FLAG-TOR); read-out: IC50 mTOR,0.001 µM
same,IC50,[1]; [3],0.002 µM
same,IC50,[2]; [4],0.013 µM
same,IC50,PI3K-α,0.002 µM
same,IC50,PI3K-γ,0.0185 µM
"O=C(Nc1ccc(C(=O)NCCO)cc1)Nc1ccc(-c2nc(N3CCOCC3)nc(N3C4CCC3COC4)n2)cc1 [Example 699, N-(2-hydroxyethyl)-4-[({4-[4-morpholin-4-yl-6-(3-oxa-8-azabicyclo[3.2.1]oct-8-yl)-1,3,5-triazin-2-yl]phenyl}carbamoyl)amino]benzamide]",IC50,Human mTOR (FLAG-TOR); read-out: IC50 mTOR,0.0003 µM
same,IC50,[1]; [5],0.036 µM
same,IC50,[2]; [4],0.04 µM
same,IC50,PI3K-α,0.005 µM
same,IC50,PI3K-γ,0.0625 µM
"CCCCc1nc(-c2ccc(NC(=O)Nc3ccc(C(=O)N4CCC(N(C)C)CC4)cc3)cc2)nc(N2CCOCC2)n1 [Example 241, 1-[4-(4-butyl-6-morpholin-4-yl-1,3,5-triazin-2-yl)phenyl]-3-(4-{[4-(dimethylamino)piperidin-1-yl]carbonyl}phenyl)urea]",IC50,Human mTOR (FLAG-TOR); read-out: IC50 mTOR,0.009 µM
same,IC50,"[1]; Homo sapiens, MDA-MB-361, 72 h",0.024 µM
same,IC50,"[2]; Homo sapiens, PC3MM2, 72 h",0.135 µM
same,IC50,PI3K-α,0.006 µM
same,IC50,PI3K-γ,0.023 µM
"CC(C)Cc1nc(-c2ccc(NC(=O)Nc3ccc(N4CCN(C)CC4)cc3)cc2)nc(N2CCOCC2)n1 [Example 297, 1-[4-(4-methylpiperazin-1-yl)phenyl]-3-{4-[4-(2-methylpropyl)-6-morpholin-4-yl-1,3,5-triazin-2-yl]phenyl}urea]",IC50,Human mTOR (FLAG-TOR); read-out: IC50 mTOR,0.01 µM
same,IC50,"[1]; Homo sapiens, MDA-MB-361, 72 h",0.115 µM
same,IC50,"[2]; Homo sapiens, PC3MM2, 72 h",0.29 µM
same,IC50,PI3K-α,0.038 µM
same,IC50,PI3K-γ,0.07 µM
"O=C(Nc1ccncc1)Nc1ccc(-c2nc(NC3CNC3)nc(N3CCOCC3)n2)cc1 [Example 22, 1-{4-[4-(azetidin-3-ylamino)-6-morpholin-4-yl-1,3,5-triazin-2-yl]phenyl}-3-pyridin-4-ylurea]",IC50,Human mTOR (FLAG-TOR); read-out: IC50 mTOR,0.00475 µM
same,IC50,"[1]; Homo sapiens, MDA-MB-361, 72 h",1.42 µM
same,IC50,"[2]; Homo sapiens, PC3MM2, 72 h",2.44 µM
same,IC50,PI3K-α,0.012 µM
same,IC50,PI3K-γ,0.142 µM
"C=C(OCC)c1nc(-c2ccc(NC(=O)Nc3ccncc3)cc2)nc(N2CCOCC2)n1 [Example 199, 1-{4-[4-(1-ethoxyvinyl)-6-morpholin-4-yl-1,3,5-triazin-2-yl]phenyl}-3-pyridin-4-ylurea]",IC50,Human mTOR (FLAG-TOR); read-out: IC50 mTOR,0.001 µM
same,IC50,"[1]; Homo sapiens, MDA-MB-361, 72 h",0.096 µM
same,IC50,"[2]; Homo sapiens, PC3MM2, 72 h",0.093 µM
same,IC50,PI3K-α,0.044 µM
same,IC50,PI3K-γ,0.144 µM
"1-{4-[4-(4-methylphenyl)-6-morpholin-4-yl-1,3,5-triazin-2-yl]phenyl}-3-[4-(pyrrolidin-1-ylcarbonyl)phenyl]urea [Example 553]",IC50,Human mTOR (FLAG-TOR); read-out: IC50 mTOR,0.0195 µM
same,IC50,[1]; MDA-MB-361 cells,0.113 µM
same,IC50,[2]; PC3-mm2 cells,0.522 µM
same,IC50,PI3K-α,0.0125 µM
same,IC50,PI3K-γ,0.072 µM
"CCc1nc(-c2ccc(NC(=O)Nc3ccc(C(=O)NCc4ccncc4)cc3)cc2)nc(N2CCOCC2)n1 [Example 321, 4-({[4-(4-ethyl-6-morpholin-4-yl-1,3,5-triazin-2-yl)phenyl]carbamoyl}amino)-N-(pyridin-4-ylmethyl)benzamide]",IC50,Human mTOR (FLAG-TOR); read-out: IC50 mTOR,0.0165 µM
same,IC50,"[1]; Homo sapiens, MDA-MB-361, 72 h",0.106 µM
same,IC50,"[2]; Homo sapiens, PC3MM2, 72 h",0.325 µM
same,IC50,PI3K-α,0.025 µM
same,IC50,PI3K-γ,0.116 µM
"CC(O)c1ccc(NC(=O)Nc2ccc(-c3nc(N4CCOCC4)nc(N4CCOC[C@@H]4C)n3)cc2)cc1 (stereo partly drawn) [Example 93, 1-[4-(1-hydroxyethyl)phenyl]-3-(4-{4-[(3S)-3-methylmorpholin-4-yl]-6-morpholin-4-yl-1,3,5-triazin-2-yl}phenyl)urea]",IC50,Human mTOR (FLAG-TOR); read-out: IC50 mTOR,0.00855 µM
same,IC50,"[1]; Homo sapiens, MDA-MB-361, 72 h",0.042 µM
same,IC50,"[2]; Homo sapiens, PC3MM2, 72 h",0.06 µM
same,IC50,PI3K-α,0.012 µM
same,IC50,PI3K-γ,0.133 µM
"CCc1nc(-c2ccc(NC(=O)Nc3ccc(C(=O)N4CCC(N(C)C)CC4)cc3)cc2)nc(N2CCOCC2)n1 [Example 238, 1-(4-{[4-(dimethylamino)piperidin-1-yl]carbonyl}phenyl)-3-[4-(4-ethyl-6-morpholin-4-yl-1,3,5-triazin-2-yl)phenyl]urea]",IC50,Human mTOR (FLAG-TOR); read-out: IC50 mTOR,0.0036 µM
same,IC50,"[1]; Homo sapiens, MDA-MB-361, 72 h",0.023 µM
same,IC50,"[2]; Homo sapiens, PC3MM2, 72 h",0.061 µM
same,IC50,PI3K-α,0.001 µM
same,IC50,PI3K-γ,0.01 µM
"O=C(Nc1ccc(C(=O)O)cc1)Nc1ccc(-c2nc(-c3ccccc3)nc(N3CCOCC3)n2)cc1 [Example 541, 4-({[4-(4-morpholin-4-yl-6-phenyl-1,3,5-triazin-2-yl)phenyl]carbamoyl}amino)benzoic acid]",IC50,Human mTOR (FLAG-TOR); read-out: IC50 mTOR,0.017 µM
same,IC50,[1]; [3],0.964 µM
same,IC50,[2]; [4],1.76 µM
same,IC50,PI3K-α,0.028 µM
same,IC50,PI3K-γ,0.057 µM
"N#Cc1ccc(NC(=O)Nc2ccc(-c3nc(N4CCOCC4)nc(N4C5CCC4COC5)n3)cc2)cc1 [Example 42, 1-(4-cyanophenyl)-3-{4-[4-morpholin-4-yl-6-(3-oxa-8-azabicyclo[3.2.1]oct-8-yl)-1,3,5-triazin-2-yl]phenyl}urea]",IC50,Human mTOR (FLAG-TOR); read-out: IC50 mTOR,0.00335 µM
same,IC50,"[1]; Homo sapiens, MDA-MB-361, 72 h",0.345 µM
same,IC50,[2]; [4],3.6 µM
same,IC50,"[2]; Homo sapiens, PC3MM2, 72 h",3.6 µM
same,IC50,PI3K-α,0.086 µM
same,IC50,PI3K-α; listed as 677,0.0865 µM
same,IC50,PI3K-γ,0.29 µM
"O=C(Nc1ccc(C(=O)NCCN2CCCC2)cc1)Nc1ccc(-c2nc(-c3ccccc3)nc(N3CCOCC3)n2)cc1 [Example 552, 4-({[4-(4-morpholin-4-yl-6-phenyl-1,3,5-triazin-2-yl)phenyl]carbamoyl}amino)-N-(2-pyrrolidin-1-ylethyl)benzamide]",IC50,Human mTOR (FLAG-TOR); read-out: IC50 mTOR,0.00355 µM
same,IC50,[1]; [5],0.105 µM
same,IC50,[2]; [4],0.243 µM
same,IC50,PI3K-α,0.0115 µM
same,IC50,PI3K-γ,0.127 µM
"COCCOc1nc(-c2ccc(NC(=O)Nc3ccncc3)cc2)nc(N2CCOCC2)n1 [Example 200, 1-{4-[4-(2-methoxyethoxy)-6-morpholin-4-yl-1,3,5-triazin-2-yl]phenyl}-3-pyridin-4-ylurea]",IC50,Human mTOR (FLAG-TOR); read-out: IC50 mTOR,0.0065 µM and 0.00645 µM
same,IC50,"[1]; Homo sapiens, MDA-MB-361, 72 h",0.162 µM
same,IC50,[2]; [4],0.248 µM
same,IC50,"[2]; Homo sapiens, PC3MM2, 72 h",0.248 µM
same,IC50,PI3K-α,0.014 µM
same,IC50,PI3K-α; listed as 714,0.0155 µM
same,IC50,PI3K-γ,0.128 µM
same,IC50,PI3K-γ; listed as 714,0.069 µM
"CC(C)(C)OC(=O)N1CC(Oc2nc(-c3ccc(NC(=O)Nc4ccncc4)cc3)nc(N3CCOCC3)n2)C1 [Example 494, tert-butyl 3-[(4-morpholin-4-yl-6-{4-[(pyridin-4-ylcarbamoyl)amino]phenyl}-1,3,5-triazin-2-yl)oxy]azetidine-1-carboxylate]",IC50,Human mTOR (FLAG-TOR); read-out: IC50 mTOR,0.0042 µM
same,IC50,[1]; [5],0.115 µM
same,IC50,[2]; [4],0.276 µM
same,IC50,PI3K-α,0.0165 µM
same,IC50,PI3K-γ,0.104 µM
"O=C(Nc1ccc(-c2nc(N3CCOCC3)nc(N3CC4CCC(C3)O4)n2)cc1)Nc1cccnc1 [Example 47, 1-{4-[4-morpholin-4-yl-6-(8-oxa-3-azabicyclo[3.2.1]oct-3-yl)-1,3,5-triazin-2-yl]phenyl}-3-pyridin-3-ylurea]",IC50,Human mTOR (FLAG-TOR); read-out: IC50 mTOR,0.0016 µM
same,IC50,"[1]; Homo sapiens, MDA-MB-361, 72 h",0.116 µM
same,IC50,"[2]; Homo sapiens, PC3MM2, 72 h",0.095 µM
same,IC50,PI3K-α,0.013 µM
same,IC50,PI3K-γ,0.052 µM
"Cc1ccc(-c2nc(-c3ccc(NC(=O)Nc4ccc(C(=O)NCCN5CCCC5)cc4)cc3)nc(N3CCOCC3)n2)cc1 [Example 548, 4-[({4-[4-(4-methylphenyl)-6-morpholin-4-yl-1,3,5-triazin-2-yl]phenyl}carbamoyl)amino]-N-(2-pyrrolidin-1-ylethyl)benzamide]",IC50,Human mTOR (FLAG-TOR); read-out: IC50 mTOR,0.00975 µM
same,IC50,[1]; [5],0.524 µM
same,IC50,[2]; [4],0.869 µM
same,IC50,PI3K-α,0.04 µM
same,IC50,PI3K-γ,0.387 µM
